Source: a melting point compilation (Tetko et al.)

Row | Compound | melting point
1 | Cc1cccc(OCC(O)CNC(C)(C)C)c1C (configuration not stated) | 57 °C
2 | COC(=O)C1(C(=O)OC)Cc2c(C)cccc2C(=O)O1 | 100 °C
3 | CC(CCC(=O)O)n1nnc2ccccc21 (configuration not stated) | 86 °C
4 | CC1(C)OC2CC3C4CC(F)C5=CC(=O)C=CC5(C)C4C(O)CC3(C)C2(C(=O)CO)O1 (configuration not stated) | 245 °C
5 | O=C(/C(=N/Nc1ccc(Br)cc1)S(=O)(=O)c1ccccc1)c1cccs1 | 158 °C
6 | Cc1cc(C)c2c(c1)OC(=O)C2 | 105 °C
7 | CC(=O)OCCOCCOCCOC(C)=O | -50 °C
8 | NS(=O)(=O)c1ccc(SCCCO)cc1 | 117 °C
9 | O=S(=O)(c1ccccc1)n1cc(Br)c2ccccc21 | 120 to 121 °C
10 | COc1cccc2onc(N)c12 | 140 to 142 °C
11 | CCOC(=O)c1csc(N2CCOCC2)n1 | 88.5 to 90 °C
12 | Cc1cnc2c(ccc3c(C)c(C)cnc32)c1C | 278 °C
13 | NC(=O)Nc1ccccn1 | 173 to 175 °C
14 | O=Cc1ncc[nH]1 | 209 °C
15 | COC=C(C(=O)OC)C(=O)OC | 43 °C
16 | CC(=O)OC1CC[C@@]2(C)C(CC[C@@H]3[C@@H]2CC[C@@]2(C)[C@H]3CC[C@@]2(C#Cc2ccccc2)OC(C)=O)C1 (some centres not stated) | 166 °C
17 | CCCCCCCC(=O)Oc1c(Br)cc(C#N)cc1Br | 45.5 °C
18 | Brc1cc(Br)c(Oc2c(Br)c(Br)c(Br)c(Br)c2Br)cc1Br | 200 °C
19 | CC(=N[Si](C)(C)C)O[Si](C)(C)C | 24 °C
20 | Oc1nccc(C(F)(F)F)n1 | 217 to 218 °C
21 | CC1(C)CC(=O)C2=C(C1)Nc1ccc3ccccc3c1C2c1ccc(Cl)cc1Cl (configuration not stated) | 348 °C
22 | OCc1cc(Cl)ccc1O | 90 to 91 °C
23 | CCC1=[N+]([O-])C(C)(C)N(C)C1(C)C | 32 to 34 °C
24 | N#Cc1c(N2CCCC2)cc(Cl)nc1N1CCCC1 | 132 to 140 °C
25 | Cc1c(C)c(C)c(C(=O)Cc2ccccc2)c(C)c1C | 135 °C
26 | COc1ccc([N+](=O)[O-])c2ccccc12 | 81 to 85 °C

Row | Compound | melting point
27 | CCCCN1CCCCC1C(=O)Nc1c(C)cccc1C (configuration not stated) | 107 °C
28 | O=C(O)c1cc(-c2ccccc2)n[nH]1 | 250 °C
29 | CC(Cc1ccccc1)C(=O)O (configuration not stated) | 37 to 37.5 °C
30 | O=C(c1ccc(F)cc1)C1CCN(CCn2c(=O)[nH]c3ccccc3c2=O)CC1 | 231 °C
31 | O=[N+]([O-])c1cccnc1Oc1cncc(Cl)c1 | 104 to 105 °C
32 | Cc1cc(Br)cc(C)c1N | 50 °C
33 | Brc1ccc(-c2ccco2)cc1 | 83 to 84 °C
34 | CC(C)CCCCCCCOC(=O)c1ccccc1C(=O)OCCCCCCCC(C)C | -45.6 °C
35 | O=C(NCO)c1ccccc1 | 95 °C
36 | CN1C(=O)C(=NNc2ccc(F)cc2)C(=O)N(C)C1=O | 191 °C
37 | O=C(O)C=Cc1ccc(-c2ccc(F)cc2F)o1 | 218 to 220 °C
38 | CC(=O)C(C)=NO | 76.8 °C
39 | NC(=O)N1c2ccccc2CCc2ccccc21 | 205 °C
40 | CCCCCCOC(=O)CCCC | -63.1 °C
41 | Cc1ccc(-c2csc(N)n2)cc1 | 137 °C
42 | Cc1nccnc1O | 153 °C
43 | c1ccc(CP(c2ccccc2)c2ccccc2)cc1 | 75 °C
44 | NP(=O)(Oc1ccccc1)Oc1ccccc1 | 149 °C
45 | Oc1ccnc2cc(C(F)(F)F)ccc12 | 266 to 270 °C
46 | NC(=O)c1ccc(F)cc1C(F)(F)F | 136 °C
47 | COc1c(O)ccc2c1C(=O)N1CCc3cc4c(cc3[C@@H]1C2)OCO4 | 209 °C
48 | CC(=O)Nc1cccc(C(C)=O)c1 | 127 °C
49 | N#CCc1ccc2c(c1)OCO2 | 43 to 45 °C
50 | CC(=O)C(C(C)=O)=C1SCCS1 | 91 °C
51 | CCCOC1CCC2C3CCC4=CC(O)CCC4(C)C3CCC12C (configuration not stated) | 123 to 127 °C
52 | O=C1CCCC2C3CCCN4CCCC(CN12)C34 (configuration not stated) | 76 °C
